Data from ChEMBL document CHEMBL1151510, “Inhibition of matrix metalloproteinases by P1 substituted N-carboxyalkyl dipeptides” (Bioorg Med Chem Lett, 1996).

Legend:
[1] = target: T1, 72 kDa type IV collagenase (Homo sapiens, UniProt P08253); assay: Inhibition of MMP-2.
Target sequence in this assay (P08253 whole entry): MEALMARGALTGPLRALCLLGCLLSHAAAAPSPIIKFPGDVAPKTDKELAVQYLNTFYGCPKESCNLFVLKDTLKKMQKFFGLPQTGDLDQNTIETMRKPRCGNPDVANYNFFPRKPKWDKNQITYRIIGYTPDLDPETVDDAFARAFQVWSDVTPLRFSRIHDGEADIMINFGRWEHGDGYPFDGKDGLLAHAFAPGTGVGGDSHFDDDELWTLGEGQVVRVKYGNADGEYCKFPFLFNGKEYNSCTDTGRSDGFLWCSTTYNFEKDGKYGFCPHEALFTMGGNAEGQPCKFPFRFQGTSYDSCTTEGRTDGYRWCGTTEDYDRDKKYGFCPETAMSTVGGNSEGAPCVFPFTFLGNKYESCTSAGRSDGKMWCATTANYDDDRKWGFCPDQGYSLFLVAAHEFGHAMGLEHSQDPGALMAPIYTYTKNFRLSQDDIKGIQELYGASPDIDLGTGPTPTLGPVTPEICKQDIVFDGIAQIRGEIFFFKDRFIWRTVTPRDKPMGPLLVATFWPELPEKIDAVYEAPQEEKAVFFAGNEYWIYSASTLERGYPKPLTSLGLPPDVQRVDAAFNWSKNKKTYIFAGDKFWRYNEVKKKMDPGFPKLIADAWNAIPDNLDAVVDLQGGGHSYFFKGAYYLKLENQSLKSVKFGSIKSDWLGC

Interstitial collagenase [2] = target: T2, Interstitial collagenase (Homo sapiens, UniProt P03956); assay: Inhibition of matrix metalloprotease -1.
T2 sequence (P03956 whole entry): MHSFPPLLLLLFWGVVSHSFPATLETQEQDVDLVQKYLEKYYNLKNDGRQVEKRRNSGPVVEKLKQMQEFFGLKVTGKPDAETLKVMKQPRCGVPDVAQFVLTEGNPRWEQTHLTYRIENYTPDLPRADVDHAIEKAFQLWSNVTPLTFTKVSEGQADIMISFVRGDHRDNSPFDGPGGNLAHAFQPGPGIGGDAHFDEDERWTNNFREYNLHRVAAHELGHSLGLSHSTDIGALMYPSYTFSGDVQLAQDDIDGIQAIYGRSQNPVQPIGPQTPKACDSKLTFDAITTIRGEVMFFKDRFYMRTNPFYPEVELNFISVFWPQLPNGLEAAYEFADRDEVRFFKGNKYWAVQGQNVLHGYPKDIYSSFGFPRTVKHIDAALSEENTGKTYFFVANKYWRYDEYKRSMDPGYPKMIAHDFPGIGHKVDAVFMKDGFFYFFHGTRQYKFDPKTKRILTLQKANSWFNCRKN

Stromelysin-1 [3] = target: T3, Stromelysin-1 (Homo sapiens, UniProt P08254)
[4] = target: T1, 72 kDa type IV collagenase; assay: Inhibition of matrix metalloprotease-2 at 1 uM
Target sequence in this assay (P08253 110-660 limits assumed): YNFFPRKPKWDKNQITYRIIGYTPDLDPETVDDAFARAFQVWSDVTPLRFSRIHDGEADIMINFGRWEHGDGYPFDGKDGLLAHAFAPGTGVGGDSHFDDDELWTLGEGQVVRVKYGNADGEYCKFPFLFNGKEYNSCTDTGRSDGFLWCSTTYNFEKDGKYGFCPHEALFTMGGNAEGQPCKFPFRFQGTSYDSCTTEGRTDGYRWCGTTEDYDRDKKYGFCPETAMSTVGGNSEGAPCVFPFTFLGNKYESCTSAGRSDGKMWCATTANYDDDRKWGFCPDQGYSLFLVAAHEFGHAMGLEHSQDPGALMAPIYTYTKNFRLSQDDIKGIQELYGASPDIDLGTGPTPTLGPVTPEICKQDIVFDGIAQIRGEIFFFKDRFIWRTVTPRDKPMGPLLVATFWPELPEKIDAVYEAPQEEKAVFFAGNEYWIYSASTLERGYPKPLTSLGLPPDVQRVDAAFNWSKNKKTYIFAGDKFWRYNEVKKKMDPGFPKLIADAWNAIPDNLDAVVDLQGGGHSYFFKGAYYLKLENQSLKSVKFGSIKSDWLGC

[5] = target: T1, 72 kDa type IV collagenase; assay: Inhibition of matrix metalloprotease-2 at 1 uM.
Target sequence in this assay (P08253 110-660 limits assumed): as above

[6] = target: T4, Interstitial collagenase (Homo sapiens) (UniProt P03956); assay: Inhibition of matrix metalloprotease-1 at 10 uM
T4 sequence (whole entry): T2 sequence (P03956 whole entry)

[7] = target: T1, 72 kDa type IV collagenase; assay: Inhibition of matrix metalloprotease-2
Target sequence in this assay (P08253 whole entry): as the sequence (P08253 whole entry) above

Stromelysin-1 [8] = target: T3, Stromelysin-1; assay: Inhibition of matrix metalloprotease -3
Interstitial collagenase [9] = target: T2, Interstitial collagenase; assay: Inhibition of matrix metalloprotease -1

T3 sequence (P08254 whole entry): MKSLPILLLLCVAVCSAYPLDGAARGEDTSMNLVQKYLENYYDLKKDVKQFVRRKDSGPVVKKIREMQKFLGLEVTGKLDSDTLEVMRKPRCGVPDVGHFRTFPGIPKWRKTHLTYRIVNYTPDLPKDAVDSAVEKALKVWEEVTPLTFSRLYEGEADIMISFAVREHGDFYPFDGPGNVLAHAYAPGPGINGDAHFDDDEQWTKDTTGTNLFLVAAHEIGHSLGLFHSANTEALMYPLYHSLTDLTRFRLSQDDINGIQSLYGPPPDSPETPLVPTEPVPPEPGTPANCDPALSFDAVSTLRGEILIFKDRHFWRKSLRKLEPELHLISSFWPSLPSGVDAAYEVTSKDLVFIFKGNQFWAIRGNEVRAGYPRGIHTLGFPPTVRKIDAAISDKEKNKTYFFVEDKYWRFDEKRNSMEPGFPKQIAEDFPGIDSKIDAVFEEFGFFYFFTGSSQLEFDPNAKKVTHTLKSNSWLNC

SMILES	Ki [1]	Ki (Interstitial collagenase [2])	Ki (Stromelysin-1 [3])	inhibition [5]	other results
CCCC[C@@H](N[C@@H](CCc1ccccc1)C(=O)N[C@@H](CC(C)C)C(=O)Nc1ccccc1)C(=O)O	1100 nM	6800 nM	320 nM		
CC(C)C[C@H](NC(=O)[C@H](CCc1ccccc1)N[C@H](CCNC(=O)c1ccccc1)C(=O)O)C(=O)Nc1ccccc1		1090 nM	120 nM		inhibition [4]: 72%
CC(C)C[C@H](NC(=O)[C@H](CCc1ccccc1)N[C@H](CCCCc1ccccc1)C(=O)O)C(=O)Nc1ccccc1		72 nM	120 nM	64%	
CCCCCC[C@@H](N[C@@H](CCc1ccccc1)C(=O)N[C@@H](CC(C)C)C(=O)Nc1ccccc1)C(=O)O	2300 nM		530 nM		inhibition [6]: 43%
CC(C)C[C@H](NC(=O)[C@H](CCc1ccccc1)N[C@H](CCCCNC(=O)c1ccccc1)C(=O)O)C(=O)Nc1ccccc1	120 nM	5800 nM	32 nM		
CC(C)C[C@H](NC(=O)[C@H](CCc1ccccc1)N[C@H](CCCCCNC(=O)c1ccccc1)C(=O)O)C(=O)Nc1ccccc1	120 nM	3890 nM	20 nM		
CC(=O)N1CCCC1C(=O)NCCCC[C@@H](N[C@@H](CCc1ccccc1)C(=O)N[C@@H](CC(C)C)C(=O)Nc1ccccc1)C(=O)O (stereo partly drawn)		1100 nM	180 nM	91%	
CC(C)C[C@H](NC(=O)[C@H](CCc1ccccc1)N[C@H](CCCNC(=O)CCCc1ccccc1)C(=O)O)C(=O)Nc1ccccc1			120 nM	70%	inhibition [6]: 36%
CC(C)C[C@H](NC(=O)[C@H](CCc1ccccc1)N[C@H](CCCCN1C(=O)c2ccccc2C1=O)C(=O)O)C(=O)Nc1ccccc1	86 nM	720 nM	8 nM		
CC(C)C[C@H](NC(=O)[C@H](CCc1ccccc1)N[C@H](CCCNC(=O)Cc1ccccc1)C(=O)O)C(=O)Nc1ccccc1	60 nM	870 nM	10 nM		
CC(C)C[C@H](NC(=O)[C@H](CCc1ccccc1)N[C@H](CCNC(=O)CCc1ccccc1)C(=O)O)C(=O)Nc1ccccc1		3330 nM	110 nM	41%	
CC(C)C[C@H](NC(=O)[C@H](CCc1ccccc1)N[C@H](CCCN1C(=O)c2ccccc2C1=O)C(=O)O)C(=O)Nc1ccccc1	570 nM	3400 nM	140 nM		
CC(C)C[C@H](NC(=O)[C@H](CCc1ccccc1)N[C@H](CCCCNC(=O)CCc1ccccc1)C(=O)O)C(=O)Nc1ccccc1		13000 nM	190 nM	49%	
CC(C)C[C@H](NC(=O)[C@H](CCc1ccccc1)N[C@H](CCCCNC(=O)Cc1ccccc1)C(=O)O)C(=O)Nc1ccccc1	70 nM	7200 nM	28 nM		
CC(C)C[C@H](NC(=O)[C@H](CCc1ccccc1)N[C@H](CCCNC(=O)CCc1ccccc1)C(=O)O)C(=O)Nc1ccccc1		2200 nM	9.5 nM	87%	
CC(C)C[C@H](NC(=O)[C@H](CCc1ccccc1)N[C@H](CCNC(=O)Cc1ccccc1)C(=O)O)C(=O)Nc1ccccc1		1790 nM	130 nM		
CC(C)C[C@H](NC(=O)[C@H](CCc1ccccc1)N[C@H](CCN1C(=O)c2ccccc2C1=O)C(=O)O)C(=O)Nc1ccccc1	20 nM	2090 nM	33 nM		
CC(C)C[C@H](NC(=O)[C@H](CCc1ccccc1)N[C@H](CCNC(=O)CCCc1ccccc1)C(=O)O)C(=O)Nc1ccccc1	770 nM	4410 nM	270 nM		
CC(C)C[C@H](NC(=O)[C@H](CCc1ccccc1)N[C@H](CCCCCNC(=O)Cc1ccccc1)C(=O)O)C(=O)Nc1ccccc1	350 nM	5810 nM	47 nM		
CC(C)C[C@H](NC(=O)[C@H](CCc1ccccc1)N[C@H](CCCCN1Cc2ccccc2C1=O)C(=O)O)C(=O)Nc1ccccc1	110 nM	1600 nM	12 nM		
CC(C)C[C@H](NC(=O)[C@H](CCc1ccccc1)N[C@H](CCCNC(=O)c1ccccc1)C(=O)O)C(=O)Nc1ccccc1			270 nM	50%	inhibition [6]: 50%
CC[C@@H](N[C@@H](CCc1ccccc1)C(=O)N[C@@H](CC(C)C)C(=O)Nc1ccccc1)C(=O)O	1100 nM	1800 nM	350 nM		
CNC(=O)[C@H](Cc1ccccc1)NC(=O)[C@H](CC(C)C)N[C@H](CCN1C(=O)c2cc3ccccc3cc2C1=O)C(=O)O					Ki [7]: 91 nM; Ki (Stromelysin-1 [8]): 20 nM; Ki (Interstitial collagenase [9]): 5 nM
